Assay results: ChEMBL document CHEMBL4610038, “The synthesis of trifluoromethylated N-nitroaryl-2-amino-1,3-dichloropropane derivatives and their evaluation as potential anti-cancer agents” (Bioorg Med Chem Lett, 2020)

What was measured:
T47D [1] = experiment: Cytotoxicity against human T47D cells assessed as reduction in cell viability; type: functional, cell-based
MDA-MB-231 [2] = experiment: Cytotoxicity against human MDA-MB-231 cells assessed as cell viability at 100 uM relative to control; type: functional; conditions: read-out: Activity
Caco-2 [3] = experiment: Cytotoxicity against human Caco2 cells assessed as cell viability at 100 uM relative to control; type: functional; conditions: read-out: Activity
HCT-116 [4] = experiment: Cytotoxicity against human HCT116 cells assessed as cell viability at 100 uM relative to control; type: functional; conditions: read-out: Activity
A549 [5] = experiment: Cytotoxicity against human A549 cells assessed as cell viability at 100 uM relative to control; type: functional; conditions: read-out: Activity
HT-29 [6] = experiment: Cytotoxicity against human HT-29 cells assessed as reduction in cell viability; type: functional, cell-based
HCT-116 [7] = experiment: Cytotoxicity against human HCT116 cells assessed as reduction in cell viability; type: functional, cell-based
SUNE1 [8] = experiment: Cytotoxicity against human SUNE1 cells assessed as cell viability at 100 uM relative to control; type: functional; conditions: read-out: Activity
BXPC-3 [9] = experiment: Cytotoxicity against human BxPC3 cells assessed as cell viability at 100 uM relative to control; type: functional; conditions: read-out: Activity
MCF-10A = experiment: Cytotoxicity against human MCF10A cells assessed as reduction in cell viability; type: cell-based
[10] = Cytotoxicity against human HK1 cells assessed as cell viability at 100 uM relative to control; type: functional; conditions: HK-1, read-out: Activity
SH-SY5Y [11] = experiment: Cytotoxicity against human SH-SY5Y cells assessed as reduction in cell viability; type: functional, cell-based
BXPC-3 [12] = experiment: Cytotoxicity against human BxPC3 cells assessed as reduction in cell viability; type: functional, cell-based
Caco-2 [13] = experiment: Cytotoxicity against human Caco2 cells assessed as reduction in cell viability; type: functional, cell-based
MDA-MB-468 [14] = experiment: Cytotoxicity against human MDA-MB-468 cells assessed as reduction in cell viability; type: functional, cell-based
MDA-MB-231 [15] = experiment: Cytotoxicity against human MDA-MB-231 cells assessed as reduction in cell viability; type: functional, cell-based
MCF7 [16] = experiment: Cytotoxicity against human MCF7 cells assessed as cell viability at 100 uM relative to control; type: functional; conditions: read-out: Activity
SW1990 [17] = experiment: Cytotoxicity against human SW1990 cells assessed as cell viability at 100 uM relative to control; type: functional; conditions: read-out: Activity
[18] = Cytotoxicity against human MCF10A cells assessed as cell viability at 100 uM relative to control; type: cell-based, MCF-10A; conditions: read-out: Activity
SUNE1 [19] = experiment: Cytotoxicity against human SUNE1 cells assessed as reduction in cell viability; type: functional, cell-based
SW1990 [20] = experiment: Cytotoxicity against human SW1990 cells assessed as reduction in cell viability; type: functional, cell-based
A549 [21] = experiment: Cytotoxicity against human A549 cells assessed as reduction in cell viability; type: functional, cell-based
CNE [22] = experiment: Cytotoxicity against human CNE1 cells assessed as cell viability at 100 uM relative to control; type: functional; conditions: read-out: Activity
[23] = Cytotoxicity against human HK1 cells assessed as reduction in cell viability; type: functional, cell-based; conditions: HK-1
ASPC1 [24] = experiment: Cytotoxicity against human AsPC1 cells assessed as cell viability at 100 uM relative to control; type: functional; conditions: read-out: Activity
MDA-MB-468 [25] = experiment: Cytotoxicity against human MDA-MB-468 cells assessed as cell viability at 100 uM relative to control; type: functional; conditions: read-out: Activity
SH-SY5Y [26] = experiment: Cytotoxicity against human SH-SY5Y cells assessed as cell viability at 100 uM relative to control; type: functional; conditions: read-out: Activity
T47D [27] = experiment: Cytotoxicity against human T47D cells assessed as cell viability at 100 uM relative to control; type: functional; conditions: read-out: Activity
HT-29 [28] = experiment: Cytotoxicity against human HT-29 cells assessed as cell viability at 100 uM relative to control; type: functional; conditions: read-out: Activity
SW48 [29] = experiment: Cytotoxicity against human SW48 cells assessed as cell viability at 100 uM relative to control; type: functional; conditions: read-out: Activity
NCI-H1299 [30] = experiment: Cytotoxicity against human H1299 cells assessed as reduction in cell viability; type: functional, cell-based
CNE [31] = experiment: Cytotoxicity against human CNE1 cells assessed as reduction in cell viability; type: functional, cell-based
SW48 [32] = experiment: Cytotoxicity against human SW48 cells assessed as reduction in cell viability; type: functional, cell-based
SK-BR-3 [33] = experiment: Cytotoxicity against human SKBR3 cells assessed as cell viability at 100 uM relative to control; type: functional; conditions: read-out: Activity
ASPC1 [34] = experiment: Cytotoxicity against human AsPC1 cells assessed as reduction in cell viability; type: functional, cell-based
MRC5 = experiment: Cytotoxicity against human MRC5 cells assessed as reduction in cell viability; type: cell-based
SK-BR-3 [35] = experiment: Cytotoxicity against human SKBR3 cells assessed as reduction in cell viability; type: functional, cell-based
MCF7 [36] = experiment: Cytotoxicity against human MCF7 cells assessed as reduction in cell viability; type: functional, cell-based
[37] = Cytotoxicity against human MRC5 cells assessed as cell viability at 100 uM relative to control; type: cell-based; conditions: read-out: Activity
NCI-H1299 [38] = experiment: Cytotoxicity against human H1299 cells assessed as cell viability at 100 uM relative to control; type: functional; conditions: read-out: Activity

For O=[N+]([O-])c1ccc(NC(CO)CO)c([N+](=O)[O-])c1, the IC50 (T47D [1]) was > 100 µM, the viability at 100 µM (MDA-MB-231 [2]) was 79.4% and the viability at 100 µM (Caco-2 [3]) was 102%. The viability at 100 µM (HCT-116 [4]) was 81.9%, the viability at 100 µM (A549 [5]) was 77.4% and the IC50 (HT-29 [6]) was > 100 µM. The IC50 (HCT-116 [7]) was > 100 µM, the viability at 100 µM (SUNE1 [8]) was 106% and the viability at 100 µM (BXPC-3 [9]) was 104%. For the same molecule, the IC50 (MCF-10A) was > 100 µM, the viability at 100 µM [10] was 103% and the IC50 (SH-SY5Y [11]) was > 100 µM. The IC50 (BXPC-3 [12]) was > 100 µM, the IC50 (Caco-2 [13]) was > 100 µM and the IC50 (MDA-MB-468 [14]) was > 100 µM. The IC50 (MDA-MB-231 [15]) was > 100 µM, the viability at 100 µM (MCF7 [16]) was 55.5% and the viability at 100 µM (SW1990 [17]) was 65.8%. The viability at 100 µM [18] was 105%, the IC50 (SUNE1 [19]) was > 100 µM and the IC50 (SW1990 [20]) was > 100 µM. The IC50 (A549 [21]) was > 100 µM, the viability at 100 µM (CNE [22]) was 102% and the IC50 [23] was > 100 µM. It also gave a viability at 100 µM (ASPC1 [24]) of 108%, a viability at 100 µM (MDA-MB-468 [25]) of 106% and a viability at 100 µM (SH-SY5Y [26]) of 86.1%. For the same molecule, the viability at 100 µM (T47D [27]) was 79.9%, the viability at 100 µM (HT-29 [28]) was 89.6% and the viability at 100 µM (SW48 [29]) was 88.2%. For the same molecule, the IC50 (NCI-H1299 [30]) was > 100 µM, the IC50 (CNE [31]) was > 100 µM and the IC50 (SW48 [32]) was > 100 µM. For the same molecule, the viability at 100 µM (SK-BR-3 [33]) was 98.9%, the IC50 (ASPC1 [34]) was > 100 µM and the IC50 (MRC5) was > 100 µM. For the same molecule, the IC50 (SK-BR-3 [35]) was > 100 µM, the IC50 (MCF7 [36]) was > 100 µM and the viability at 100 µM [37] was 78.9%. It also gave a viability at 100 µM (NCI-H1299 [38]) of 89.8%.
